Assay results taken from patent publication US20170106109A1 (priority 2010, published 2017).

Tests used:
Escherichia coli = assay type: cell-based
Ralstonia solanacearum [1] = assay type: cell-based
Ralstonia solanacearum [2] = assay type: cell-based; remark: listed apart in the source
[3] = tested on: λ phage DNA HindIII Marker

OO [Sample 3-3, hydrogen peroxide] was tested, and the “survival of Escherichia coli” value (Escherichia coli) was “a large amount of Escherichia coli survived”.
With OO [Sample 4-3, hydrogen peroxide] the “survival of Ralstonia solanacearum” value (Ralstonia solanacearum [1]) was “a large amount of Ralstonia solanacearum survived”.
OO [Sample 6-3, hydrogen peroxide] was tested, and the “change of bacterial density of Ralstonia solanacearum with time” value (Ralstonia solanacearum [2]) was “the bacterial density changed little”.
In the case of OO [Sample 7-3, hydrogen peroxide], the “DNA ladder on agarose electrophoresis” value [3] is reported as “the DNA ladder did not change”.
